Data from publication PMC10247784, “Physiological activation of human and mouse bitter taste receptors by bile acids” (Communications Biology, 2023).

Molecular target: T1, mouse Tas2r144 (Mus musculus, UniProt Q7TQB8)
T1 construct: expressed in transfected cells; host or cells: HEK293T-Gα16gust44
Assay: Calcium imaging assay (FLIPR), HEK293T-Gα16gust44 cells transfected with mouse Tas2r144
Assay type: cell-based
Procedure: This set of bile acids was chosen because of their commercial availability in high purities, their diversity within the class of bile acids and their previous detection and quantitation in human blood. Stock solutions were prepared in DMSO.
As basal growth medium for the HEK293T-Gα16gust44 cell line[17],[59] served Dulbecco’s modified eagle medium (DMEM) (Thermo Fisher Scientific, Darmstadt, Germany) supplemented with 10 % fetal bovine serum (Sigma-Aldrich, Steinheim, Germany), 2 mM L-glutamine (Sigma-Aldrich, Steinheim, Germany), 100 units/ml penicillin (Sigma Aldrich, Steinheim, Germany) and 100 µg/ml streptomycin (Sigma Aldrich, Steinheim, Germany). Growth conditions were 37 °C, 5 % CO2 and saturated air-humidity[60].
HEK293T-Gα16gust44 cells were seeded on poly-D-lysine (10 µg/ml) coated 96-well plates to reach a confluence of 40-60 % the next day. For transient transfection 150 ng of plasmid DNA containing the receptor of interest and 0.3 µl lipofectamine 2000 (Thermo Fisher Scientific, Darmstadt, Germany) per well were used and transfection took place according to the manual of lipofectamine 2000. […] The empty vector DNA (mock) was transfected as negative control[14],[41].
Cells were loaded using the calcium-sensitive fluorescent dye Fluo-4-AM (Abcam, Cambridge, Great Britain) in the presence of 2.5 mM probenecid (Sigma-Aldrich, Steinheim, Germany) the day after transfection[13],[41]. 1 h after loading, cells were washed with C1 buffer using a BioTek Cell Washer, incubated in the dark for half an hour and washed again. For automated agonist application and measurement of fluorescence changes, a FLIPR^TETRA device (Molecular Devices, San José, United States) was used. Viability of cells was tested by application of 100 nM Somatostatin 14 (Bachem, Bubendorf, Switzerland)[42].
Measured data were negative control corrected by subtracting the signal of the mock-transfected cells and exported to Microsoft Excel using the FLIPR software ScreenWorks 4.2. In Microsoft Excel software, standardization of maximum fluorescence intensities to the basal fluorescence and normalization to the buffer-only control was done to calculate the relative fluorescence changes (ΔF/F).
Initial screening experiments performed in duplicate wells were confirmed by at least one replication and representative traces were selected for display. All dose-response relationships were determined by three independent experiments (biological replicates) performed in duplicates (technical replicates). Threshold concentrations, defined as lowest substance concentrations leading to statistically significant elevated fluorescence changes in receptor-transfected cells compared with empty vector-transfected cells, were determined using SigmaPlot with Student’s t-test to evaluate statistical significance (p < 0.01).

T1 sequence (Q7TQB8 whole entry): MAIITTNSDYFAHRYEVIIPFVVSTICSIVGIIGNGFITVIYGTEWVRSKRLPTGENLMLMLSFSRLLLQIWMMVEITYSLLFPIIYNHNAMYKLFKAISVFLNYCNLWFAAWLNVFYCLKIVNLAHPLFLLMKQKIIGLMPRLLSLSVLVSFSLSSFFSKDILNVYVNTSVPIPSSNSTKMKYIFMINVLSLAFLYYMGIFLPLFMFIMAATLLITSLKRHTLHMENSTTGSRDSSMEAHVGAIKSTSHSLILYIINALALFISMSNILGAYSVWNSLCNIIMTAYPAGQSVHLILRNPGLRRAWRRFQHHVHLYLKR

C[C@H](CCC(=O)O)[C@H]1CC[C@H]2[C@@H]3[C@H](O)C[C@@H]4C[C@H](O)CC[C@]4(C)[C@H]3C[C@H](O)[C@]12C [Cholic Acid, cholic acid]
RLU (Time 0 s): 0 RLU | RLU (Time 2 s): 0.2042 RLU | RLU (Time 4 s): 5.384 RLU | RLU (Time 6 s): -45.6095 RLU | RLU (Time 8 s): 13.5839 RLU | RLU (Time 12 s): 34.8706 RLU | RLU (Time 14 s): 52.0817 RLU | RLU (Time 16 s): 11.4185 RLU | RLU (Time 18 s): 29.9569 RLU | RLU (Time 18.781 s): 46.048 RLU | RLU (Time 20.781 s): 112.965 RLU | RLU (Time 22.781 s): 165.689 RLU | RLU (Time 24.781 s): 205.772 RLU | RLU (Time 26.781 s): 242.163 RLU | RLU (Time 28.781 s): 320.656 RLU | RLU (Time 30.781 s): 367.762 RLU | RLU (Time 32.781 s): 422.903 RLU | RLU (Time 34.781 s): 499.119 RLU | RLU (Time 36.781 s): 524.9 RLU | RLU (Time 38.781 s): 565.569 RLU | RLU (Time 40.781 s): 583.905 RLU | RLU (Time 42.781 s): 606.644 RLU | RLU (Time 44.781 s): 633.066 RLU | RLU (Time 46.781 s): 639.921 RLU | RLU (Time 48.781 s): 638.534 RLU | RLU (Time 50.781 s): 641.518 RLU | RLU (Time 52.781 s): 632.385 RLU | RLU (Time 54.781 s): 644.317 RLU | RLU (Time 56.781 s): 655.573 RLU | RLU (Time 58.781 s): 678.513 RLU | RLU (Time 60.781 s): 666.775 RLU | RLU (Time 62.781 s): 667.745 RLU | RLU (Time 64.781 s): 637 RLU | RLU (Time 66.781 s): 647.88 RLU | RLU (Time 68.781 s): 635.725 RLU | RLU (Time 70.781 s): 644.081 RLU | RLU (Time 72.781 s): 655.408 RLU | RLU (Time 74.781 s): 647.263 RLU | RLU (Time 76.781 s): 633.033 RLU | RLU (Time 78.781 s): 631.561 RLU | RLU (Time 80.781 s): 620.522 RLU | RLU (Time 82.781 s): 627.467 RLU | RLU (Time 84.781 s): 627.103 RLU | RLU (Time 86.781 s): 578.642 RLU | RLU (Time 88.781 s): 568.631 RLU | RLU (Time 90.781 s): 548.759 RLU | RLU (Time 92.781 s): 576.256 RLU | RLU (Time 94.781 s): 543.082 RLU | RLU (Time 96.781 s): 562.136 RLU | RLU (Time 98.781 s): 521.114 RLU | RLU (Time 100.781 s): 533.293 RLU | RLU (Time 102.781 s): 509.746 RLU | RLU (Time 104.781 s): 492.298 RLU | RLU (Time 106.781 s): 485.694 RLU | RLU (Time 108.781 s): 481.982 RLU | RLU (Time 110.781 s): 458.143 RLU | RLU (Time 112.781 s): 439.768 RLU | RLU (Time 114.781 s): 433.077 RLU | RLU (Time 116.781 s): 415.823 RLU | RLU (Time 118.781 s): 408.859 RLU | RLU (Time 120.781 s): 392.039 RLU | RLU (Time 122.781 s): 431.314 RLU | RLU (Time 124.781 s): 392.828 RLU | RLU (Time 126.781 s): 373.554 RLU | RLU (Time 128.781 s): 347.376 RLU | RLU (Time 130.781 s): 337.354 RLU | RLU (Time 132.781 s): 314.537 RLU | RLU (Time 134.781 s): 326.444 RLU | RLU (Time 136.781 s): 292.52 RLU | RLU (Time 137.562 s): 313.513 RLU | RLU (Time 143.562 s): 250.659 RLU | RLU (Time 149.562 s): 229.584 RLU | RLU (Time 155.562 s): 203.982 RLU | RLU (Time 161.562 s): 211.817 RLU | RLU (Time 167.562 s): 206.485 RLU | RLU (Time 173.562 s): 171.281 RLU | RLU (Time 179.562 s): 153.445 RLU | RLU (Time 185.562 s): 144.359 RLU | RLU (Time 191.562 s): 143.458 RLU | RLU (Time 197.562 s): 135.182 RLU | RLU (Time 203.562 s): 115.034 RLU | RLU (Time 209.562 s): 107.877 RLU | RLU (Time 215.562 s): 83.8781 RLU | RLU (Time 221.562 s): 20.807 RLU | RLU (Time 227.562 s): 27.2515 RLU | RLU (Time 233.562 s): -2.456 RLU | RLU (Time 239.562 s): 17.5402 RLU | RLU (Time 245.562 s): -0.008323 RLU | RLU (Time 293.562 s): 2 RLU | RLU (Time 299.562 s): -5.681 RLU | RLU (Time 305.562 s): 20.6398 RLU | RLU (Time 311.562 s): 25.3808 RLU | RLU (Time 317.562 s): 16.3914 RLU | RLU (Time 323.562 s): 41.1546 RLU | RLU (Time 329.562 s): -2.456 RLU | RLU (Time 335.562 s): 34.2464 RLU | RLU (Time 341.562 s): 21.8644 RLU | RLU (Time 347.562 s): 15.2738 RLU | RLU (Time 353.562 s): 29.9395 RLU | RLU (Time 359.562 s): 27.2515 RLU | Activation threshold concentration Tas2r144 (p < 0.01 vs empty vector): 100 µM
